Test results reported in patent publication US20110280913A1, “Methods and Compositions for Delivering Therapeutic Agents in the Treatment of B-Cell Related Disorders” (THE OHIO STATE UNIVERSITY, priority 2008, published 2011).

Legend:
CLL cells [1] = assay: ADCC, 4-hour 51Cr-release assay; format: cell-based, human; settings: using alemtuzumab, data not shown
Description: For ADCC experiments, CD56^+ and CD19^+ cells were negatively purified from whole blood obtained from either healthy volunteers or CLL subjects by magnetic-activated cell sorting according to the manufacturer's recommendations (MiniMACS; Miltenyi Biotec, Auburn, Calif.). The purity of enriched populations was always greater than 95% of the total yield as detected by CD19 and CD3 staining.
ADCC activity was determined by standard 4-hour ^51Cr-release assay. ^51Cr-labeled target cells (10^5 CLL cells/mL) were incubated with media alone or in the presence of various antibodies (10 μg/mL) at 37° C. for 30 minutes. Unbound antibody was washed off and the cells plated at 10^4 cells/well. Effector cells (natural killer [NK] cells from healthy donors or CLL subjects) were then added to the plates at indicated effector-to-target (E:T) ratios. After a 4-hour incubation, supernatants were removed and measured using a gamma counter. The percentage of specific cell lysis was determined by the equation: % lysis=100×(ER−SR)/(MR−SR), where ER, SR, and MR represent experimental, spontaneous, and maximum release, respectively. Data were normalized to the untreated control.

CLL cells [2] = assay: Cytotoxicity in presence of cross-linking (annexin V/PI); format: cell-based, human; settings: for cell death (antibody-mediated apoptosis in the presence of cross-linking): rituximab 10 μg/mL + 50 μg/mL anti-Fc
Description: Cells (10^6 cells/mL) were treated with commercially purchased alemtuzumab (anti-CD52; Ilex Pharmaceuticals, San Antonio, Tex.), rituximab (anti-CD20; Genentech, San Francisco, Calif.), or trastuzumab (anti-HER2; Genentech) at a concentration of 10 μg/mL. Goat antihuman IgG cross-linker (Fc specific; Jackson ImmunoResearch Laboratories, West Grove, Pa.) was added to the cell suspension 5 minutes after adding the primary antibodies at a concentration of 50 μg/mL.
In addition, samples with no treatment or crosslinker alone were collected at matched time points. Apoptosis of cells at 24 and 48 hours after treatment was measured by annexin V-fluorescein isothiocyanate/propidium iodide (PI) flow cytometry analysis according to the supplier's instructions (BD Biosciences).
Cytotoxicity results were expressed as percentage of total positive cells over untreated control [% positive cells=(% annexin^+ and/or PI^+ cells of treatment group)−(% annexin^+ and/or PI^+ cells of untreated control)].

Row | Substance | change in ADCC, lenalidomide versus untreated cells (CLL cells [1]) | change in alemtuzumab-mediated apoptosis with lenalidomide treatment (CLL cells [2]; lenalidomide 48 hours, cross-linking, same conditions) | cell death (antibody-mediated apoptosis in the presence of cross-linking) (CLL cells [2]; lenalidomide-treated CLL cells (48 hours), N=10, P<0.017) | cell death (antibody-mediated apoptosis in the presence of cross-linking) (CLL cells [2]; vehicle-treated CLL cells (48 hours), N=10)
1 | alemtuzumab: anti-CD52 antibody; Ilex Pharmaceuticals | no significant change | No significant change |  | 
2 | rituximab: anti-CD20 antibody; Genentech |  |  | 11% ±8% | 25% ±11%
